Assay results published in PMC12649549, “Sequence Permutation Generated Lysine and Tryptophan-Rich Antimicrobial Peptides with Enhanced Therapeutic Index” (Antibiotics, 2025).
Where two headings read alike, the source gives them in different places.

What was measured:
S. aureus ATCC 33591 = test system: S. aureus ATCC 33591
Summary of the method: (§1)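 Broth microdilution per CLSI in Müller-Hinton broth and modified LYM broth (pH 7.4; variants with 50–300 mM NaCl, 0.5–2.5 mM MgCl2, or pH 6.5–4.5). Inoculum 5 × 10^5 CFU/mL; peptides tested at 0.78–50 µg/mL final. MIC read; three independent repeats.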

[1] = test system: A. baumannii 14B0097 (Acinetobacter sp., BCRC number 14B0097)
Summary of the method: as §1

[2] = test system: A. baumannii 14B0091 (Acinetobacter sp., BCRC number 14B0091)
Summary of the method: as §1

S. aureus ATCC 33593 = test system: S. aureus ATCC 33593
Summary of the method: as §1

[3] = test system: Escherichia coli (ATCC 25922)
Summary of the method: as §1

S. aureus ATCC 25923 = test system: S. aureus ATCC 25923
Summary of the method: as §1

Gram-positive bacteria = experiment: Geometric mean MIC and therapeutic index, Gram-positive bacteria; format: cell-based
Description: (§2) In this study, we aimed to investigate the potential of W5K series peptides for therapeutic use. To evaluate their efficacy for antibacterial therapy, we used the Therapeutic Index (TI) as a measure of their cell selectivity. The TI was calculated as the ratio of the concentration causing 10% hemolysis of human red blood cells (HC10) to the geometric mean minimum inhibitory concentration (GM) of the peptides against both Gram-negative and Gram-positive bacteria. This parameter was used to quantitatively assess the balance between antibacterial potency and cytotoxicity among the W5K derivatives.
(§3) The antibacterial activities of the peptides in Müller-Hinton (MH) broth and modified LYM broth were determined using the standard broth microdilution method as per Clinical and Laboratory Standards Institute (CLSI) guidelines. The LYM broth was prepared with specific components and adjusted to different conditions, including varying concentrations of NaCl and MgCl2, and different pH levels. To prepare the LYM broth, 5.4 mM KCl, 5.6 mM Na2HPO4, 0.5 mM MgSO4, and 1.0 mM sodium citrate were added. Additionally, 0.4 mg of ZnCl2, 2.0 mg of FeCl3·6H2O, 0.1 mg of CuSO4·5H2O, 0.1 mg of MnSO4·H2O, 0.1 mg of Na2B4O7∙10H2O, 700 mg of amino acid mixtures without tryptophan (Takara Bio Inc., San Jose, CA, USA), and 20 mg of L-tryptophan were added per liter of medium. The pH was adjusted to 7.4, and a vitamin mixture (100X, Sigma) and glucose concentration of 2% were added. For different conditions of LYM broth, NaCl concentrations of 300, 200, 150, and 50 mM, MgCl2 concentrations of 2.5, 1.5, and 0.5 mM, and pH levels of 6.5, 5.5, and 4.5 were adjusted. Bacterial strains were incubated in MH broth overnight, regrown, and diluted to a final concentration of 5 × 10^5 CFU/mL. Peptides were added to each well at final concentrations of 50, 25, 12.5, 6.25, 3.13, 1.56, and 0.78 µg/mL, and 99 µL of diluted microbes was loaded into each well of a polypropylene 96-well plate. […] The Morpheus HeatMap software (https://software.broadinstitute.org/morpheus/) was used to display MIC values on a color scale. All experiments were independently repeated three times.

[4] = test system: Both Gram-positive and -negative bacteria; experiment: Geometric mean MIC, therapeutic index and fold changes of MIC, whole panel of strains; format: cell-based; settings: for weakening of antibacterial efficacy (MIC): LYM broth
Description: as §2, §3

[5] = LYM broth, 0 mM NaCl, 16 h, 37 °C
[6] = LYM broth, 50 mM NaCl, 16 h, 37 °C
[7] = LYM broth, 100 mM NaCl, 16 h, 37 °C
[8] = LYM broth, 200 mM (NaCl), 16 h, 37 °C
[9] = LYM broth, 300 mM (NaCl), 16 h, 37 °C
[10] = MH broth, 5 × 10^5 CFU/mL, 16 h, 37 °C, repeated three times

Ac-KKKKWRKWLKWLA-NH2 [Peptide W5K11]
0.78 µg/mL: MIC [2, 10]
up to 3 fold: weakening of antibacterial efficacy (MIC) ([4]; 300 mM NaCl)
1.56 µg/mL: MIC [1, 5] | MIC ([1]; LYM broth, 0.5 mM MgCl2) | MIC ([1]; LYM broth, 1.5 mM MgCl2) | MIC ([1]; LYM broth, 2.5 mM MgCl2) | MIC [1, 6] | MIC [1, 7] | MIC [1, 8] | MIC [1, 9] | MIC ([1]; LYM broth, pH 4.5) | MIC ([1]; LYM broth, pH 5.5) | MIC ([1]; LYM broth, pH 6.5) | MIC [1, 10] | MIC [2, 5] | MIC ([2]; LYM broth, 0.5 mM MgCl2) | MIC ([2]; LYM broth, 1.5 mM MgCl2) | MIC ([2]; LYM broth, 2.5 mM MgCl2) | MIC [2, 6] | MIC [2, 7] | MIC [2, 8] | MIC [2, 9] | MIC ([2]; LYM broth, pH 4.5) | MIC ([2]; LYM broth, pH 5.5) | MIC ([2]; LYM broth, pH 6.5) | MIC (S. aureus ATCC 33593; LYM broth, pH 5.5) | MIC (S. aureus ATCC 33593; LYM broth, pH 6.5) | MIC [3, 5] | MIC [3, 6] | MIC ([3]; LYM broth, pH 4.5) | MIC ([3]; LYM broth, pH 5.5) | MIC ([3]; LYM broth, pH 6.5) | MIC (S. aureus ATCC 25923; [5]) | MIC (S. aureus ATCC 25923; LYM broth, 0.5 mM MgCl2) | MIC (S. aureus ATCC 25923; LYM broth, 1.5 mM MgCl2) | MIC (S. aureus ATCC 25923; LYM broth, 2.5 mM MgCl2) | MIC (S. aureus ATCC 25923; [6]) | MIC (S. aureus ATCC 25923; LYM broth, pH 5.5) | MIC (S. aureus ATCC 25923; LYM broth, pH 6.5)
21.2: Therapeutic Index (TI) G−/+ ([4]; HC10/GM, both Gram-positive and -negative bacteria)
5.4 µg/mL: GM G+ (geometric mean of the MIC values) (Gram-positive bacteria)
6.25 µg/mL: MIC (S. aureus ATCC 33591; [8]) | MIC (S. aureus ATCC 33591; [9]) | MIC (S. aureus ATCC 33593; [9]) | MIC (S. aureus ATCC 33593; [10]) | MIC [3, 9] | MIC [3, 10] | MIC (S. aureus ATCC 25923; [9])
13.0: Therapeutic Index (TI) G+ (Gram-positive bacteria; HC10/GM, Gram-positive bacteria)
12.5 µg/mL: MIC (S. aureus ATCC 33591; [10])
3.13 µg/mL: MIC (S. aureus ATCC 33591; [5]) | MIC (S. aureus ATCC 33591; LYM broth, 0.5 mM MgCl2) | MIC (S. aureus ATCC 33591; LYM broth, 1.5 mM MgCl2) | MIC (S. aureus ATCC 33591; LYM broth, 2.5 mM MgCl2) | MIC (S. aureus ATCC 33591; [6]) | MIC (S. aureus ATCC 33591; [7]) | MIC (S. aureus ATCC 33591; LYM broth, pH 4.5) | MIC (S. aureus ATCC 33591; LYM broth, pH 5.5) | MIC (S. aureus ATCC 33591; LYM broth, pH 6.5) | MIC (S. aureus ATCC 33593; [5]) | MIC (S. aureus ATCC 33593; LYM broth, 0.5 mM MgCl2) | MIC (S. aureus ATCC 33593; LYM broth, 1.5 mM MgCl2) | MIC (S. aureus ATCC 33593; LYM broth, 2.5 mM MgCl2) | MIC (S. aureus ATCC 33593; [6]) | MIC (S. aureus ATCC 33593; [7]) | MIC (S. aureus ATCC 33593; [8]) | MIC (S. aureus ATCC 33593; LYM broth, pH 4.5) | MIC ([3]; LYM broth, 0.5 mM MgCl2) | MIC ([3]; LYM broth, 1.5 mM MgCl2) | MIC ([3]; LYM broth, 2.5 mM MgCl2) | MIC [3, 7] | MIC [3, 8] | MIC (S. aureus ATCC 25923; [7]) | MIC (S. aureus ATCC 25923; [8]) | MIC (S. aureus ATCC 25923; LYM broth, pH 4.5) | MIC (S. aureus ATCC 25923; [10])
3.3 µg/mL: GM G−/+ (geometric mean of the MIC values) [4]
up to 2 fold: weakening of antibacterial efficacy (MIC) ([4]; MgCl2 rising above 0.5 mM)
